# Assay results taken from US20260373156A1, “CANCER TREATMENTS USING MTA-COOPERATIVE PRMT5 INHIBITORS” (AMGEN INC., priority 2022, published 2026).
# Assays:
# [1] = test system: A549 cells; experiment: CellTiter-Glo viability and CalcuSyn synergy, PRMT5 inhibitor + trametinib, 6 days; details: for Combination Fa: 8640 min
# [2] = test system: LU5268 NSCLC xenografts; experiment: Tumor growth inhibition, LU5268 NSCLC xenografts (Example 13); type: in vivo, Female NOD/SCID mice; details: Compound B 100 mg/kg orally once daily + sotorasib 100 mg/kg; versus either single agent alone
# Text: 10 Female NOD/SCID mice were implanted with LU5268 NSCLC tumor xenografts. Mean tumor volumes for each grouping were between 100-200 mm^3. […] Plotted data represents the TGI (tumor growth inhibition), n=10 for each group.
# [3] = test system: MIAPACA2T2 cells; experiment: CellTiter-Glo viability and CalcuSyn synergy, PRMT5 inhibitor + sotorasib, 6 days; details: for Combination Fa: 8640 min
# [4] = test system: PSN1 cells; experiment: CellTiter-Glo viability and CalcuSyn synergy, PRMT5 inhibitor + KIF18A, 6 days; details: for Combination Fa: 8640 min
# [5] = test system: LU99 cells; experiment: as above; type: cell-based; details: for Combination Fa: 8640 min
# Protocol: Raw luminescent values were converted to fraction affected (Fa) with the following equation: […]
# Synergy analysis was performed using the CalcuSyn software to determine CI scores based on the drug concentrations used and corresponding Fa values. Results are shown in Tables 13-15 below. *CI Values (Calcusyn): Strong Synergism: 0.1-0.3; Synergism: 0.3-0.7; Moderate Synergism: 0.7-0.85; Slight Synergism: 0.85-0.9; Nearly Additive: 0.9-1.1.
# [6] = test system: H292 cells; experiment: CellTiter-Glo viability and CalcuSyn synergy, PRMT5 inhibitor + palbociclib, 6 days; details: for Combination Fa: 8640 min
# [7] = test system: MIAPACA2T2 cells; experiment: CellTiter-Glo viability and CalcuSyn synergy, PRMT5 inhibitor + trametinib, 6 days; details: for Combination Fa: 8640 min
# [8] = test system: HCC1395 cells; experiment: CellTiter-Glo viability and CalcuSyn synergy, PRMT5 inhibitor + olaparib, 6 days; details: for Combination Fa: 8640 min
# [9] = test system: MIAPACA2 cells; experiment: CellTiter-Glo cell viability, PRMT5 inhibitor + sotorasib, 6 days; type: cell-based; details: Compound B + sotorasib
# Protocol: Cell viability was measured by the CellTiter-Glo Luminescence assay after 6 days. […] To assess cell growth after combination treatment, nuclear counts were performed on the IncuCyte live cell imager over 8 days.
# [10] = Compound B 0.0425 μM + trametinib 0.000213 μM
# [11] = Compound B 0.0425 μM + trametinib 0.000404 μM
# [12] = Compound B 0.0425 μM + trametinib 0.000767 μM
# [13] = Compound B 0.0425 μM + trametinib 0.001458 μM
# [14] = Compound B 0.0425 μM + trametinib 0.00277 μM
# [15] = Compound B 0.0425 μM + trametinib 0.005263 μM
# [16] = Compound B 0.0425 μM + trametinib 0.01 μM
# [17] = Compound B 0.4374 μM + sotorasib 0.00596 μM
# [18] = Compound B 0.4374 μM + sotorasib 0.009537 μM
# [19] = Compound B 0.4374 μM + sotorasib 0.015259 μM
# [20] = Compound B 0.4374 μM + sotorasib 0.024414 μM
# [21] = Compound B 0.4374 μM + sotorasib 0.039063 μM
# [22] = Compound B 0.4374 μM + sotorasib 0.0625 μM
# [23] = Compound B 0.4374 μM + sotorasib 0.1 μM
# [24] = Compound B 0.0384 μM + KIF18A 0.003951 μM
# [25] = Compound B 0.0384 μM + KIF18A 0.005926 μM
# [26] = Compound B 0.0384 μM + KIF18A 0.008889 μM
# [27] = Compound B 0.0384 μM + KIF18A 0.013333 μM
# [28] = Compound B 0.0384 μM + KIF18A 0.02 μM
# [29] = Compound B 0.0384 μM + KIF18A 0.03 μM
# [30] = Compound B 0.0384 μM + KIF18A 0.045 μM
# [31] = Compound B 0.0729 μM + KIF18A 0.003984 μM
# [32] = Compound B 0.0729 μM + KIF18A 0.005578 μM
# [33] = Compound B 0.0729 μM + KIF18A 0.007809 μM
# [34] = Compound B 0.0729 μM + KIF18A 0.010933 μM
# [35] = Compound B 0.0729 μM + KIF18A 0.015306 μM
# [36] = Compound B 0.0729 μM + KIF18A 0.021429 μM
# [37] = Compound B 0.0729 μM + KIF18A 0.03 μM
# [38] = Compound B 0.0425 μM + palbociclib 0.044102 μM
# [39] = Compound B 0.0425 μM + palbociclib 0.079383 μM
# [40] = Compound B 0.0425 μM + palbociclib 0.14289 μM
# [41] = Compound B 0.0425 μM + palbociclib 0.257202 μM
# [42] = Compound B 0.0425 μM + palbociclib 0.462963 μM
# [43] = Compound B 0.0425 μM + palbociclib 0.833333 μM
# [44] = Compound B 0.0425 μM + palbociclib 1.5 μM
# [45] = Compound B 0.437381 μM + trametinib 0.00101 μM
# [46] = Compound B 0.437381 μM + trametinib 0.001918 μM
# [47] = Compound B 0.437381 μM + trametinib 0.003645 μM
# [48] = Compound B 0.437381 μM + trametinib 0.00531 μM
# [49] = Compound B 0.437381 μM + trametinib 0.006925 μM
# [50] = Compound B 0.437381 μM + trametinib 0.013158 μM
# [51] = Compound B 0.437381 μM + trametinib 0.025 μM
# [52] = Compound B 1.4579 μM + olaparib 0.103573 μM
# [53] = Compound B 1.4579 μM + olaparib 0.176074 μM
# [54] = Compound B 1.4579 μM + olaparib 0.299326 μM
# [55] = Compound B 1.4579 μM + olaparib 0.508854 μM
# [56] = Compound B 1.4579 μM + olaparib 0.865052 μM
# [57] = Compound B 1.4579 μM + olaparib 1.47059 μM
# [58] = Compound B 1.4579 μM + olaparib 2.5 μM
structure (smiles),measurement,setting,value
Cc1cc2cc(C(=O)N(Cc3ccc(C(F)(F)F)cn3)[C@@H](C)c3ncccn3)ccc2nc1N [Compound B],Computed CI value,[1]; [10],0.569
same,Combination Fa,[1]; [10],0.4457
same,Computed CI value,[1]; [11],0.514
same,Combination Fa,[1]; [11],0.5278
same,Computed CI value,[1]; [12],0.5
same,Combination Fa,[1]; [12],0.6046
same,Computed CI value,[1]; [13],0.506
same,Combination Fa,[1]; [13],0.6769
same,Computed CI value,[1]; [14],0.452
same,Combination Fa,[1]; [14],0.7607
same,Computed CI value,[1]; [15],0.357
same,Combination Fa,[1]; [15],0.8409
same,Computed CI value,[1]; [16],0.589
same,Combination Fa,[1]; [16],0.8482
same,anti-tumor activity,[2],significant anti-tumor activity versus either single agent alone
same,Computed CI value,[3]; [17],0.533
same,Combination Fa,[3]; [17],0.678
same,Computed CI value,[3]; [18],0.425
same,Combination Fa,[3]; [18],0.749
same,Computed CI value,[3]; [19],0.443
same,Combination Fa,[3]; [19],0.781
same,Computed CI value,[3]; [20],0.535
same,Combination Fa,[3]; [20],0.798
same,Computed CI value,[3]; [21],0.543
same,Combination Fa,[3]; [21],0.838
same,Computed CI value,[3]; [22],0.471
same,Combination Fa,[3]; [22],0.887
same,Computed CI value,[3]; [23],0.83
same,Combination Fa,[3]; [23],0.875
same,Computed CI value,[4]; [24],0.627
same,Combination Fa,[4]; [24],0.778
same,Computed CI value,[4]; [25],0.75
same,Combination Fa,[4]; [25],0.751
same,Computed CI value,[4]; [26],0.594
same,Combination Fa,[4]; [26],0.819
same,Computed CI value,[4]; [27],0.645
same,Combination Fa,[4]; [27],0.825
same,Computed CI value,[4]; [28],0.674
same,Combination Fa,[4]; [28],0.844
same,Computed CI value,[4]; [29],0.778
same,Combination Fa,[4]; [29],0.852
same,Computed CI value,[4]; [30],0.813
same,Combination Fa,[4]; [30],0.88
same,Computed CI value,[5]; [31],0.937
same,Combination Fa,[5]; [31],0.596
same,Computed CI value,[5]; [32],0.625
same,Combination Fa,[5]; [32],0.7067
same,Computed CI value,[5]; [33],0.753
same,Combination Fa,[5]; [33],0.712
same,Computed CI value,[5]; [34],0.651
same,Combination Fa,[5]; [34],0.7754
same,Computed CI value,[5]; [35],0.797
same,Combination Fa,[5]; [35],0.785
same,Computed CI value,[5]; [36],0.996
same,Combination Fa,[5]; [36],0.7939
same,Computed CI value,[5]; [37],1.312
same,Combination Fa,[5]; [37],0.797
same,Computed CI value,[6]; [38],0.421
same,Combination Fa,[6]; [38],0.6807
same,Computed CI value,[6]; [39],0.403
same,Combination Fa,[6]; [39],0.7009
same,Computed CI value,[6]; [40],0.284
same,Combination Fa,[6]; [40],0.7704
same,Computed CI value,[6]; [41],0.308
same,Combination Fa,[6]; [41],0.7959
same,Computed CI value,[6]; [42],0.395
same,Combination Fa,[6]; [42],0.8126
same,Computed CI value,[6]; [43],0.587
same,Combination Fa,[6]; [43],0.8205
same,Computed CI value,[6]; [44],0.878
same,Combination Fa,[6]; [44],0.8344
same,Computed CI value,[7]; [45],0.675
same,Combination Fa,[7]; [45],0.6193
same,Computed CI value,[7]; [46],0.555
same,Combination Fa,[7]; [46],0.6852
same,Computed CI value,[7]; [47],0.674
same,Combination Fa,[7]; [47],0.7091
same,Computed CI value,[7]; [48],0.775
same,Combination Fa,[7]; [48],0.5757
same,Computed CI value,[7]; [49],0.557
same,Combination Fa,[7]; [49],0.797
same,Computed CI value,[7]; [50],0.651
same,Combination Fa,[7]; [50],0.8405
same,Computed CI value,[7]; [51],1.099
same,Combination Fa,[7]; [51],0.8474
same,Computed CI value,[8]; [52],0.217
same,Combination Fa,[8]; [52],0.5945
same,Computed CI value,[8]; [53],0.278
same,Combination Fa,[8]; [53],0.6178
same,Computed CI value,[8]; [54],0.338
same,Combination Fa,[8]; [54],0.6595
same,Computed CI value,[8]; [55],0.509
same,Combination Fa,[8]; [55],0.6756
same,Computed CI value,[8]; [56],0.679
same,Combination Fa,[8]; [56],0.711
same,Computed CI value,[8]; [57],0.706
same,Combination Fa,[8]; [57],0.7778
same,Computed CI value,[8]; [58],0.59
same,Combination Fa,[8]; [58],0.8539
same,cell viability,[9],reduced MIAPACA2 cell viability
